{"source": "patent US20250381198A1", "about": "(Melt Pharmaceuticals, Inc., priority 2024, published 2025)", "type_in_all_cases": "in vivo, human", "key": {"[1]": {"system": "subjects undergoing cataract extraction with lens replacement (CELR)", "assay": "Phase 3 MELT-300: procedural sedation responders (primary endpoint)", "settings": "for Procedural sedation responder - n: number of subjects", "procedure": "Eligible participants were admitted to the study unit on Day 1.\nParticipants received study medication 30 (+5) minutes, without food or water, before planned surgery start (defined as instillation of topical ocular anesthetic gel (3 drops of chloroprocaine hydrochloride ophthalmic gel)).\nThe effectiveness of MELT-300 was evaluated after study medication is administered before surgery, in the course of surgery (intraoperatively), and postoperative on Day 1 (end of surgery defined as just prior to drape removal). Efficacy assessments included assessments of sedation, need for rescue medication for sedation, need for rescue medication for pain, and the ability to complete the surgery.\nAchievement of the primary endpoint (i.e., procedural sedation) was evaluated. Success for a procedural sedation responder was defined as a subject that achieved the target sedation level (RSS level 2 or 3) by the start of surgery without the need for rescue sedation medication, no requirement for intraoperative sedation medication, and who was able to complete the surgery.\nTreatment differences were tested using a Pearson's chi-square test where a p-value<0.05 indicated a difference, with a Fisher's exact test being used instead if any expected values were <5. […] A supportive stratified analysis was performed using the Cochran-Mantel-Haenszel (CMH) row-mean score test to stratify by site grouping.\nThis sensitivity analysis utilized the last observation (collected after study drug administration) carried forward method for imputing missing preoperative RSS scores just prior to the start of surgery."}, "[2]": {"system": "subjects undergoing cataract extraction with lens replacement (CELR)", "assay": "Phase 3: requirement for rescue sedation medication (first key secondary)", "settings": "for Requirement for rescue sedation medication - n: number of subjects", "procedure": "Analysis of the first key secondary analysis of requirement for rescue sedation medication was performed. Requirement for rescue sedation medication was defined as a subject that received rescue sedation medication during the preoperative or intraoperative period. Group comparisons and statistics were analogous to those for TABLES 42-44."}, "[3]": {"system": "subjects undergoing cataract extraction with lens replacement (CELR)", "assay": "Phase 3: rescue sedation medication use preoperatively and intraoperatively", "text": "A secondary analysis of rescue sedation medication use (both preoperatively and intraoperatively) for the ITT analysis set is shown in TABLE 51."}, "[4]": {"settings": "ITT Analysis Set, number of subjects"}}}
{"smiles": "Cc1ncc2n1-c1ccc(Cl)cc1C(c1ccccc1F)=NC2", "note": "[Midazolam, 8-chloro-6-(2-fluorophenyl)-1-methyl-4H-imidazo[1,5-a][1,4]benzodiazepine]", "values": [{"measurement": "Procedural sedation responder - %", "setting": "[1]; All-Treated Analysis Set", "value": 65.2, "unit": "%"}, {"measurement": "Procedural sedation responder - n", "setting": "[1]; All-Treated Analysis Set", "value": 58}, {"measurement": "Procedural sedation responder - %", "setting": "[1]; ITT Analysis Set", "value": 65.2, "unit": "%"}, {"measurement": "Procedural sedation responder - n", "setting": "[1]; ITT Analysis Set", "value": 58}, {"measurement": "Procedural sedation responders (achieved target sedation)", "setting": "[1]; ITT analysis set, MELT-300 or 3 mg midazolam sublingual tablet before CELR", "value": 65.2, "unit": "%"}, {"measurement": "Procedural sedation responder - %", "setting": "[1]; PP Analysis Set", "value": 65.2, "unit": "%"}, {"measurement": "Procedural sedation responder - n", "setting": "[1]; PP Analysis Set", "value": 58}, {"measurement": "Requirement for rescue sedation medication - %", "setting": "[2]; All-Treated Analysis Set", "value": 33.7, "unit": "%"}, {"measurement": "Requirement for rescue sedation medication - n", "setting": "[2]; All-Treated Analysis Set", "value": 30}, {"measurement": "Requirement for rescue sedation medication - %", "setting": "[2]; ITT Analysis Set", "value": 33.7, "unit": "%"}, {"measurement": "Requirement for rescue sedation medication - n", "setting": "[2]; ITT Analysis Set", "value": 30}, {"measurement": "Subjects who required rescue sedation medication", "setting": "[2]; ITT analysis set, preoperative or intraoperative period", "value": 33.7, "unit": "%"}, {"measurement": "Requirement for rescue sedation medication - %", "setting": "[2]; PP Analysis Set", "value": 33.7, "unit": "%"}, {"measurement": "Requirement for rescue sedation medication - n", "setting": "[2]; PP Analysis Set", "value": 30}, {"measurement": "Subjects who required rescue sedation medication", "setting": "[2]; PP analysis set", "value": 33.7, "unit": "%"}, {"measurement": "Subjects who required rescue sedation medication", "setting": "[2]; all-treated analysis set", "value": 33.7, "unit": "%"}, {"measurement": "Received intraoperative rescue sedation medication - %", "setting": "[3]; ITT Analysis Set", "value": 16.9, "unit": "%"}, {"measurement": "Received preoperative rescue sedation medication - %", "setting": "[3]; ITT Analysis Set", "value": 18.0, "unit": "%"}, {"measurement": "Received intraoperative rescue sedation medication - n", "setting": "[3]; [4]", "value": 15}, {"measurement": "Received preoperative rescue sedation medication - n", "setting": "[3]; [4]", "value": 16}, {"measurement": "Subjects who received intraoperative rescue sedation medication", "setting": "[3]; ITT analysis set", "value": 16.9, "unit": "%"}, {"measurement": "Subjects who received preoperative rescue sedation medication", "setting": "[3]; ITT analysis set", "value": 18.0, "unit": "%"}]}
